Data: PubChem BioAssay (NCI)
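Interpolation was linear, between the two tested concentrations surrounding the appropriate level; five concentrations were tested over 48 hours in 96-well plates. GI50 marks 50% less growth. TGI denotes the concentration required for complete inhibition of growth.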

Each compound was assayed on KM12 colon (assay: DTP human tumour cell line panel, 48 h).

| SMILES | TGI [µM] | GI50 [nM] |
| --- | --- | --- |
| CC(=O)SCCC1c2[nH]c3ccccc3c2CCN1O (stereo not given) | > 100 |  |
| CCOC(=O)NC(=O)c1cn(CCCOC(=O)NCCCCCCNC(=O)OCCCn2c(=O)c(C(=O)NC(=O)OCC)cn(C)c2=O)c(=O)n(C)c1=O | > 100 |  |
| CCCCn1c(-c2ccc(C(=O)O/N=C(\N)c3ccc(OC)cc3)cc2)nc(-c2ccccc2)c1-c1ccccc1 | > 100 | 2910 |
| O=C1C2=C(CC3C(C2)C3(Br)Br)C(=O)C2=C1CC1C(C2)C1(Br)Br (stereo not given) | > 100 |  |
| CC(C)=CC(=O)N1CCN(C(=O)C=C(C)C)CC1 | > 100 |  |
| CCCCC/C=C/C/C=C/CCCCCCCC1=NC(C)(C)CN1C(C)C | 2.96 | 1610 |
| CC(=O)c1ccc(NC(=O)/C(Cc2ccccn2)=N/NC(=O)C[N+](C)(C)C)cc1 | > 100 |  |
| CCc1cccc(C)c1NC(C)=O | > 100 |  |
| O=C(CC(=O)N1N=C(c2ccccc2)C(N=Nc2ccc(Cl)cc2)C1=O)Nc1ccccc1Cl (stereo not given) | > 100 |  |

The compounds below were run on MOLT-4 leukemia (assay: DTP human tumour cell line panel, 48 h).

| SMILES | GI50 [µM] | TGI [µM] |
| --- | --- | --- |
| CC(C)(C)OC(=O)N(CCCN(CCn1c2c(c3ccccc3c1=O)C(=O)c1ccccc1-2)C(=O)OC(C)(C)C)CCn1c2c(c3ccccc3c1=O)C(=O)c1ccccc1-2 | 6.46 | 16 |
| CCCCCCCCCCCCCCCCOP(=O)(O)Oc1ccc(/C=C\c2ccc(OP(=O)(O)OCCCCCCCCCCCCCCCC)cc2)cc1 |  | > 100 |
| CCN(CC)C(=O)C/C(C)=N/NC(=O)c1ccncc1 |  | > 100 |
| Cc1c2c(nn1-c1ccc(S(=O)(=O)/N=C3\SCC(=O)N3C(=O)c3ccccc3)cc1)-c1ccccc1CC2 | > 100 | > 100 |
| COC(=O)C(=O)C(C(=O)C(=O)Nc1ccc(C)cc1C)c1nc2ccccc2[nH]c1=O (stereo not given) |  | > 100 |
| Cn1cc(-c2csc(-c3cccc(F)c3)n2)c2cccnc21 | 11.7 | 34.6 |
| Cc1ccc(N=NC(C(=O)c2ccccc2)C(=O)c2ccccc2)cc1 |  | 63 |
| Cc1ccc(NC(=O)C2C(=O)N(c3ccc(C)c(C)c3)C(=O)/C2=N/O)cc1C (stereo not given) |  | > 100 |
| Nc1c(-c2ccc(Br)cc2)[n+]([O-])c2ccccc2[n+]1[O-] |  | > 100 |
| C#CC[C@]12CC(=O)CC[C@H]1CC(=O)C2 |  | > 100 |
| CNC=O.[O]=[Ge].[O]=[Ge].[O]=[Ge].[O]=[Ge][OH].[O]=[Ge][OH] |  | > 100 |
| N#CCCN(c1ccc(/C=C2\N=C(c3ccc(Cl)cc3)OC2=O)cc1)S(=O)(=O)c1ccccc1 |  | > 100 |
| Cc1cc(NS(=O)(=O)c2ccc(NC(=O)c3cccc4c(=O)c5ccccc5[nH]c34)cc2)no1 |  | > 100 |
| O=C(/C=C/c1ccccc1Cl)c1ccccc1Cl |  | 60 |
| COC(=O)C1=C(c2ccc3c(c2)OCO3)O[C@H](c2ccc3c(c2)OCO3)[C@H]1COC(C)=O |  | > 100 |
| CC(C)=[CH][Sb]([Br])([CH]=C(C)C)([CH]=C(C)C)[CH]=C(C)C | 18.8 | > 100 |
| CCOC(=O)[C@H]1Nc2ccc(C)cc2C2c3ccccc3CC21 (stereo not given in full) |  | > 100 |

| SMILES | GI50 [µM] | TGI [µM] |
| --- | --- | --- |
| COc1cc([N+](=O)[O-])ccc1NC(=O)C(F)(F)F |  | > 100 |
| N#CCCN(CCC#N)c1ccc(/C=C2\N=C(CN3C(=O)c4ccccc4C3=O)OC2=O)cc1 |  | > 100 |
| CSc1nc(NC2OC(COC(C)=O)C(OC(C)=O)C(OC(C)=O)C2OC(C)=O)c2c(OC(C)=O)c(C)c(=O)oc2n1 (stereo not given) |  | > 100 |
| O=C(NC1CCCCCC1)C1C(=O)N(C2CCCCCC2)C(=O)/C1=N\O (stereo not given) |  | 57.3 |
| O=C(O)C1C(C(=O)O)C(C(=O)O)C1C(=O)O (stereo not given) |  | > 100 |
| COc1ccc(C(=O)O)c(Cc2cccc3ccccc23)c1 |  | > 100 |
| CC#CC(=O)Nc1ccccc1CC(c1c[nH]c2ccccc12)c1c[nH]c2ccccc12 |  | 44.6 |
| NCCCNCCSSCCCCS(=O)O |  | 47.1 |
| COC(=O)C(=O)C(C(=O)C=C(C)C)C(=O)C(=O)Nc1ccc(Cl)cc1C (stereo not given) |  | > 100 |
| C[C@]12CC[C@@H]3c4ccc(Oc5nc(N6CC6)nc(N6CC6)n5)cc4CC[C@H]3[C@@H]1CCC2=O | 0.747 | 4.97 |
| COc1cc(C(=O)O[C@H](C(N)=O)[C@]2(C)CO2)c2ccccc2c1 | 17 | 48.9 |
| Cc1cccc(C(C)(C)C)c1NC(=O)CCc1n[nH]c(=S)o1 |  | > 100 |
| Cc1ccc(C(=O)/C=C/c2ccccc2O)c(C)c1 |  | > 100 |
| O=S(O)CCCCSSCCCCSSCCCCS(=O)O |  | 43.9 |
| N#Cc1cnsc1 |  | > 100 |
| CC(=O)SCCC1c2[nH]c3ccccc3c2CCN1O (stereo not given) |  | > 100 |
